Mutagenic call data for four molecules are collected here from PubChem BioAssay AID1259407 (Chemical Carcinogenesis Research Information System (CCRIS), 2018).

The structures appear in SMILES notation. Active and inactive are the calls of the source. No rule for the calls is given here.

The subject of the series is CCRIS mutagenicity, Ames/micronucleus/aberration tests. Nature of the series: CCRIS mutagenicity studies.
[1] abbreviates: Test System: AMES SALMONELLA TYPHIMURIUM, Strain/Indicator: TA97, Metabolic Activation: NONE, Method: PREINCUBATION
The mark [2] stands for this setting: Test System: AMES SALMONELLA TYPHIMURIUM, Strain/Indicator: TA98, Metabolic Activation: NONE, Method: PREINCUBATION
Setting [3] is: Test System: AMES SALMONELLA TYPHIMURIUM, Strain/Indicator: TA100, Metabolic Activation: NONE, Method: PREINCUBATION
[4] abbreviates: Test System: AMES SALMONELLA TYPHIMURIUM, Strain/Indicator: TA1535, Metabolic Activation: NONE, Method: PREINCUBATION
The mark [5] stands for this setting: Test System: CHINESE HAMSTER V-79, Strain/Indicator: V-79/6-THIOGUANINE, Metabolic Activation: NONE.

For `O=C(O)CCCc1c[nH]c2ccccc12`, the mutagenic call (Test System: AMES SALMONELLA TYPHIMURIUM, Strain/Indicator: TA97A, Metabolic Activation: NONE, Method: STANDARD PLATE) was “inactive; negative”; the mutagenic call (Test System: AMES SALMONELLA TYPHIMURIUM, Strain/Indicator: TA97A, Metabolic Activation: RAT, LIVER, S-9, AROCLOR 1254, Method: STANDARD PLATE) is “inactive; negative”; the mutagenic call (Test System: AMES SALMONELLA TYPHIMURIUM, Strain/Indicator: TA98, Metabolic Activation: NONE, Method: STANDARD PLATE) is “inactive; negative”; the mutagenic call (Test System: AMES SALMONELLA TYPHIMURIUM, Strain/Indicator: TA98, Metabolic Activation: RAT, LIVER, S-9, AROCLOR 1254, Method: STANDARD PLATE) is “inactive; negative”; the mutagenic call (Test System: AMES SALMONELLA TYPHIMURIUM, Strain/Indicator: TA100, Metabolic Activation: NONE, Method: STANDARD PLATE) was “inactive; negative”; the mutagenic call (Test System: AMES SALMONELLA TYPHIMURIUM, Strain/Indicator: TA100, Metabolic Activation: RAT, LIVER, S-9, AROCLOR 1254, Method: STANDARD PLATE) is “inactive; negative”. The mutagenic call is “inactive; negative” (Test System: AMES SALMONELLA TYPHIMURIUM, Strain/Indicator: TA1535, Metabolic Activation: NONE, Method: STANDARD PLATE); “inactive; negative” (Test System: AMES SALMONELLA TYPHIMURIUM, Strain/Indicator: TA1535, Metabolic Activation: RAT, LIVER, S-9, AROCLOR 1254, Method: STANDARD PLATE); “inactive; negative” (Test System: AMES SALMONELLA TYPHIMURIUM, Strain/Indicator: TA1537, Metabolic Activation: NONE, Method: STANDARD PLATE); “inactive; negative” (Test System: AMES SALMONELLA TYPHIMURIUM, Strain/Indicator: TA1537, Metabolic Activation: RAT, LIVER, S-9, AROCLOR 1254, Method: STANDARD PLATE); “inactive; negative” (Test System: AMES SALMONELLA TYPHIMURIUM, Strain/Indicator: TA1538, Metabolic Activation: NONE, Method: STANDARD PLATE); “inactive; negative” (Test System: AMES SALMONELLA TYPHIMURIUM, Strain/Indicator: TA1538, Metabolic Activation: RAT, LIVER, S-9, AROCLOR 1254, Method: STANDARD PLATE).
For `CCNc1ccccc1`, the mutagenic call was “inactive; negative” (Test System: AMES SALMONELLA TYPHIMURIUM, Strain/Indicator: TA97, Metabolic Activation: HAMSTER, LIVER, S-9, AROCLOR 1254 (10 OR 30%), Method: PREINCUBATION); “inactive; negative” under setting [1]; “inactive; negative” (Test System: AMES SALMONELLA TYPHIMURIUM, Strain/Indicator: TA97, Metabolic Activation: RAT, LIVER, S-9, AROCLOR 1254 (10 OR 30%), Method: PREINCUBATION); “inactive; negative” (Test System: AMES SALMONELLA TYPHIMURIUM, Strain/Indicator: TA98, Metabolic Activation: HAMSTER, LIVER, S-9, AROCLOR 1254 (10 OR 30%), Method: PREINCUBATION); “inactive; negative” under setting [2]; “inactive; negative” (Test System: AMES SALMONELLA TYPHIMURIUM, Strain/Indicator: TA98, Metabolic Activation: RAT, LIVER, S-9, AROCLOR 1254 (10 OR 30%), Method: PREINCUBATION). The mutagenic call is “inactive; negative” (Test System: AMES SALMONELLA TYPHIMURIUM, Strain/Indicator: TA100, Metabolic Activation: HAMSTER, LIVER, S-9, AROCLOR 1254 (10 OR 30%), Method: PREINCUBATION); “inactive; negative” under setting [3]; “inactive; negative” (Test System: AMES SALMONELLA TYPHIMURIUM, Strain/Indicator: TA100, Metabolic Activation: RAT, LIVER, S-9, AROCLOR 1254 (10 OR 30%), Method: PREINCUBATION); “inactive; negative” (Test System: AMES SALMONELLA TYPHIMURIUM, Strain/Indicator: TA1535, Metabolic Activation: HAMSTER, LIVER, S-9, AROCLOR 1254 (10 OR 30%), Method: PREINCUBATION); “inactive; negative” under setting [4]; “inactive; negative” (Test System: AMES SALMONELLA TYPHIMURIUM, Strain/Indicator: TA1535, Metabolic Activation: RAT, LIVER, S-9, AROCLOR 1254 (10 OR 30%), Method: PREINCUBATION).
On to `O=C(O)/C=C/C=C/C(=O)O`, for which the mutagenic call (End Point: IN VITRO CHROMOSOMAL ABERRATIONS, Test System: HUMAN PERIPHERAL LYMPHOCYTES, Metabolic Activation: NONE) is “active; positive (ploidy changes)”; the mutagenic call (End Point: IN VITRO CHROMOSOMAL ABERRATIONS, Test System: HUMAN PERIPHERAL LYMPHOCYTES, Metabolic Activation: NONE, Method: FISH- DUAL COLOR PROBES) was “inactive; negative for translocations”; the mutagenic call under setting [1] is “inactive; negative”; the mutagenic call (Test System: AMES SALMONELLA TYPHIMURIUM, Strain/Indicator: TA97, Metabolic Activation: RAT, LIVER, S-9, AROCLOR 1254, Method: PREINCUBATION) was “inactive; negative”; the mutagenic call (Test System: AMES SALMONELLA TYPHIMURIUM, Strain/Indicator: TA97, Metabolic Activation: RAT, LIVER, S-9, PHENOBARBITAL AND 5,6-BENZOFLAVONE, Method: PREINCUBATION) was “inactive; negative”; the mutagenic call under setting [2] is “inactive; negative”. Also, the mutagenic call runs as follows: (Test System: AMES SALMONELLA TYPHIMURIUM, Strain/Indicator: TA98, Metabolic Activation: RAT, LIVER, S-9, AROCLOR 1254, Method: PREINCUBATION) “inactive; negative”; (Test System: AMES SALMONELLA TYPHIMURIUM, Strain/Indicator: TA98, Metabolic Activation: RAT, LIVER, S-9, PHENOBARBITAL AND 5,6-BENZOFLAVONE, Method: PREINCUBATION) “inactive; negative”; under setting [3], “inactive; negative”; (Test System: AMES SALMONELLA TYPHIMURIUM, Strain/Indicator: TA100, Metabolic Activation: RAT, LIVER, S-9, AROCLOR 1254, Method: PREINCUBATION) “inactive; negative”; (Test System: AMES SALMONELLA TYPHIMURIUM, Strain/Indicator: TA100, Metabolic Activation: RAT, LIVER, S-9, PHENOBARBITAL AND 5,6-BENZOFLAVONE, Method: PREINCUBATION) “inactive; negative”; (Test System: AMES SALMONELLA TYPHIMURIUM, Strain/Indicator: TA102, Metabolic Activation: NONE, Method: PREINCUBATION) “inactive; negative”. Also, the mutagenic call runs as follows: (Test System: AMES SALMONELLA TYPHIMURIUM, Strain/Indicator: TA102, Metabolic Activation: RAT, LIVER, S-9, AROCLOR 1254, Method: PREINCUBATION) “inactive; negative”; (Test System: AMES SALMONELLA TYPHIMURIUM, Strain/Indicator: TA102, Metabolic Activation: RAT, LIVER, S-9, PHENOBARBITAL AND 5,6-BENZOFLAVONE, Method: PREINCUBATION) “inactive; negative”; (Test System: AMES SALMONELLA TYPHIMURIUM, Strain/Indicator: TA104, Metabolic Activation: NONE, Method: PREINCUBATION) “inactive; negative”; (Test System: AMES SALMONELLA TYPHIMURIUM, Strain/Indicator: TA104, Metabolic Activation: RAT, LIVER, S-9, AROCLOR 1254, Method: PREINCUBATION) “inactive; negative”; (Test System: AMES SALMONELLA TYPHIMURIUM, Strain/Indicator: TA104, Metabolic Activation: RAT, LIVER, S-9, PHENOBARBITAL AND 5,6-BENZOFLAVONE, Method: PREINCUBATION) “inactive; negative”; under setting [4], “inactive; negative”. Besides, the mutagenic call was “inactive; negative” (Test System: AMES SALMONELLA TYPHIMURIUM, Strain/Indicator: TA1535, Metabolic Activation: RAT, LIVER, S-9, AROCLOR 1254, Method: PREINCUBATION); “inactive; negative” (Test System: CHINESE HAMSTER V-79, Strain/Indicator: V-79 (HGPRT)/8-AZAGUANINE, Metabolic Activation: NONE); “inactive; negative” under setting [5]; “inactive; negative” (Test System: E. COLI, Strain/Indicator: WP2 UVRA, Metabolic Activation: NONE, Method: PREINCUBATION); “inactive; negative” (Test System: E. COLI, Strain/Indicator: WP2 UVRA, Metabolic Activation: RAT, LIVER, S-9, AROCLOR 1254, Method: PREINCUBATION).
For the molecule `Cc1c2ccccc2cc2c3c(ccc12)C(O)C(O)[C@@H]1O[C@@H]31` (stereo not given in full), the mutagenic call runs as follows: under setting [2], “active; positive”; under setting [3], “active; positive”; under setting [5], “active; positive”.
